IC50 data for three compounds are collected here from ChEMBL document CHEMBL1134803, “Inhibition of fucosyltransferase V by a GDP-Azasugar” (Bioorg Med Chem Lett, 2001).

Each structure is given as a SMILES string.

Assay [1] addresses T1, 4-galactosyl-N-acetylglucosaminide 3-alpha-L-fucosyltransferase FUT5 (Homo sapiens, UniProt Q11128).
T1 sequence (Q11128 whole entry): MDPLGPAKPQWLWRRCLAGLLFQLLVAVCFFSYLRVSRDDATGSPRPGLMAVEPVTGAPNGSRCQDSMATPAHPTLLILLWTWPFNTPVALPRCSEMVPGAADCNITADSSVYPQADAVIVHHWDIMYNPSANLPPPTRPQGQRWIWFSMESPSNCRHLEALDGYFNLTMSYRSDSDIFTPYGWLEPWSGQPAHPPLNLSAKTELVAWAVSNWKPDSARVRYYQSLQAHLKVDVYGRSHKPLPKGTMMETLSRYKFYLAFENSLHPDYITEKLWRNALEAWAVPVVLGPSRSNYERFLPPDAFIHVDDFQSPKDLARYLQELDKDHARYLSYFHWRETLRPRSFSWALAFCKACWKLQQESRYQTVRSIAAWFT
In words: Inhibitory activity against fucosyltransferase (FucT V) in the presence of fucosyl acceptor N-acetyllactosamine.

Assay [2] has as its target T1, 4-galactosyl-N-acetylglucosaminide 3-alpha-L-fucosyltransferase FUT5. As to the kind of experiment: Inhibitory activity against fucosyltransferase (FucT V) in the presence of 1 mM fucosyl acceptor N-acetyllactosamine.
Assay [3] shares this target. In words: Inhibitory activity against fucosyltransferase (FucT V) in the presence of 10 mM fucosyl acceptor N-acetyllactosamine.

For the compound `NCCOP(=O)(O)OP(=O)(O)OC[C@H]1O[C@@H](n2cnc3c(O)nc(N)nc32)[C@H](O)[C@@H]1O`, the IC50 in assay [1] was more than 1000 µM. In the case of `C[C@@H]1N[C@H](COP(=O)(O)OP(=O)(O)OC[C@H]2O[C@@H](n3cnc4c(O)nc(N)nc43)[C@H](O)[C@@H]2O)[C@@H](O)[C@@H]1O`, the values for the IC50 in assay [2] and in assay [3] were 45 µM and 82 µM, respectively. For `Nc1nc2c(ncn2[C@@H]2O[C@H](COP(=O)(O)OP(=O)(O)O)[C@@H](O)[C@H]2O)c(=O)[nH]1`, the IC50 in assay [1] was determined as 67 µM.
